# Several values for one entry are separate records, joined by “and”; a condition that tells them apart may be missing. Equal values may be shown once. Read-outs that look alike come from different tables or passages of the source.
# Assays:
# [1] = system: erythrocytic aggregation of the microcirculation (sludge); experiment: Erythrocytic aggregation of the microcirculation (sludge), mesenteric circulation of the rabbit; assay type: in vivo; conditions: independent of the experimental cause of sludge
# Method: This phenomenon was observed by using the technique developed by […] and BRUE (Agressologie, Vol. 4, No. 3, p. 299 ff of 1963): it entails a microscopic observation of the mesenteric circulation of the rabbit. […] The hemorrhagic shock was obtained by the […] method. The perfusion of adrenalin was carried out at a dose of 10 mg/kg/min. for 10 to 15 minutes. The perfusion of lactate was effected at a dose of 0.39 g/min for 15 minutes. The perfusion of ethyl alcohol (in a 20% aqueous solution) was carried out at a dose of 20 ml of solution (i.e. 4 ml of absolute alcohol) for 15 minutes.
# [2] = system: oxygen consumption of the rat; experiment: Oxygen consumption in metabolism apparatus for small animals (BARGETON and […]); assay type: in vivo
# Source text: The results obtained are given as percentage of the control tests in the following table I.
# cerebral lactate edema = conditions: edema induced by mechanical, biological or pharmacological means; cited from earlier work
# [3] = system: hepatic and renal circulation
# electro-cardiograms = conditions: in vivo
# rats = experiment: Toxicity, intraperitoneal injection in rats
# blood pressure = conditions: for blood pressure after first injection: Clinical Example 12, 2 g
# Source text: A person who had suffered from high blood pressure for a long time underwent an urgent operation for the removal of an intra-cerebral hematoma. […] A person who had suffered from high blood pressure and cardiac arrhythmias, was undergoing an operation for the removal of a bilateral sub-dural hematoma. […] A person of generally good health but who had undergone surgery in the previous month for the excision of a cancer of the cecum, was undergoing an operation for a cerebral metastasis. […] A perfusion of two units of blood (800 ml ) was effected to compensate for the moderate blood losses.
# Hypercapnic anoxemia = Hypercapnic anoxemia in rabbits; assay type: in vivo, rabbit
# Method: The tests were done on rabbits weighing an average of 2.5 kg. The fastening of the cranial electrodes was done under local anaesthesia with procaine, as was the placing of the catheters in a femoral artery to record the blood pressure. The tracheotomies and tracheal intubations were also done under local anaesthesia using procaine. The temperature was maintained at around 38° C. Three types of anoxemia were investigated; 2. Hypercapnic anoxemia: The above-mentioned artificial ventilation of the animal after curarization was stopped. Stopping of the cerebral electrogenesis was obtained after an average of 120 seconds. 3. Nitrogen anoxemia: The animal was curarized and artifically ventilated as indicated above. Anoxemia was obtained by connecting a nitrogen gasbag to the air intake of the BEAUDOUIN apparatus; general non-hypercapnic anoxemia occurred. Air was […] seconds. […] A latency of 30 minutes was observed before anoxemia was caused.
# Rabbit atrium = experiment: Isolated rabbit atrium
# Source text: The technique used for this study was the same as that described above for the ileum of the rabbit, but replacing the ileum with bled rabbit atrium. The preservation liquid used as LOCKE's liquid.
smiles,measurement,setting,value
O=C(CO)CO [dihydroxyacetone],intravascular aggregation (sludge),[1],caused the intravascular aggregation to disappear
same,mesenteric capillary circulation,[1],re-established the mesenteric capilliary circulation
same,mean decrease (oxygen consumption),[2]; 2 g / kilogram,6.5
same,Difference between the control measurement and the measurement after injection (oxygen consumption),"[2]; 2 g/kg, individual tests No. 1 to 12",0 percentage of the control test and -18 percentage of the control test and -16 percentage of the control test and -13 percentage of the control test and -11 percentage of the control test
same,mean decrease (oxygen consumption),[2]; 4 g / kilogram,4.1
same,Difference between the control measurement and the measurement after injection (oxygen consumption),"[2]; 4 g/kg, individual tests No. 1 to 8",-13 percentage of the control test and -10 percentage of the control test
same,oxygen consumption of the rat,[2]; overall result in words,decreased the oxygen consumption of the rat
same,protection against cerebral lactate edema,cerebral lactate edema,will protect a rat against cerebral lactate edema
same,blood CO2 pressure,[3]; in vivo,stable
same,blood pH without neutralisation of the solution,[3]; in vivo,a slight fall in the blood pH
same,average pressure and pulse pressure,[3]; intravenous perfusion of 2 g/kg,A slight increase in the average pressure and a widening of the pulse pressure
same,hepatic and renal flows,"[3]; rapid perfusion, 1 g/kg",variably increased
same,hepatic flow,"[3]; rapid perfusion, 1 g/kg",nearly doubled
same,change in the electro-cardiograms,electro-cardiograms,no change in the electro-cardiograms within standard deviations
same,"animals died, repeated injection every 2 hours","rats; 4.5 g/kg every 2 hours, third group of 5 rats",3 animals
same,maximum non-lethal dose,"rats; intraperitoneal injection, rats",about 7.50 g/kg
same,blood pressure after first injection,blood pressure; after two hours,95 mm Hg
same,blood pressure after first injection,"blood pressure; one hour, from 90",130 mm Hg
same,blood pressure after second injection,"blood pressure; Clinical Example 12, second 2 g in 10% glucose solution, remained",130 mm Hg
same,blood pressure after injection,"blood pressure; Clinical Example 13, 2 g over 15 minutes, from 60",100 mm Hg
same,blood pressure after injection,"blood pressure; Clinical Example 14, 2 g, 45 minutes later",170 mm Hg
same,blood pressure after injection,"blood pressure; Clinical Example 14, 2 g, within 20 minutes, from 70",130 mm Hg
same,blood pressure after perfusion,"blood pressure; Clinical Example 15, 2 g, within 15 minutes, from 60",110 mm Hg
same,"blood pressure after injection, stabilized","blood pressure; Clinical Example 16, 3 g",100 mm Hg
same,"blood pressure after injection, initial rise","blood pressure; Clinical Example 16, 3 g, from 80",120 mm Hg
same,post-operative complications,"blood pressure; human, in vivo",no post-operative complications
same,undesirable side effects,"blood pressure; human, in vivo",without undesirable side effects
same,"recuperation latency, hypercapnic anoxemia",Hypercapnic anoxemia; 1 g/kg intravenously,an improvement which was difficult to measure
same,"survival time, hypercapnic anoxemia","Hypercapnic anoxemia; 1 g/kg intravenously, prior perfusion",pronounced
same,"recuperation time, hypercapnic anoxemia","Hypercapnic anoxemia; 1 g/kg intravenously, result in words",a clear improvement
same,"recuperation time, hypercapnic anoxemia",Hypercapnic anoxemia; for 2 minutes of anoxemia,≤ 30 s
same,amplitude of atrium,Rabbit atrium; 800 mg per 75 ml of preservation liquid,a slight increase in amplitude
same,effect on inhibitory action of sodium lactate added subsequently,"Rabbit atrium; dihydroxyacetone 800 mg per 75 ml, then 600 mg of sodium lactate",a slight opposition to its inhibitory action
same,action on the lactate when it was added first,Rabbit atrium; lactate added first,no action
same,chronotropic action,Rabbit atrium; rabbit atrium,negative chronotropic action

# — patent publication US4049795A, “Treatment of hemorrhagic shock” (priority 1974, dated 1977)
